What was measured:
CK1γ2(h) = CK1γ2(h) (Homo sapiens, UniProt P78368); experiment: Enzyme activity, ATP = Km, CK1γ2(h); format: biochemical; conditions: 300 nM of compound, ATP concentration = Km
RPMI-8226 = experiment: Cell proliferation inhibition (MTS), RPMI-8226; format: cell-based, human; conditions: RPMI 8226, 72 hours
Experimental: (§1) All cells were cultured in media supplemented with 10% FBS except for which are marked specially, in the temperature of 37° C., 5% CO2 and 95% humidity. All culture media were purchased from GIBCO (USA, IMDM Cat. 12200-036; RPMI Medium 1640 Cat. 31800-022; 2-mercaptoethanol Cat. 21985-023).
(§2) • 1. The cells were harvested respectively during the logarithmic growth period and counted with hemocytometer. The cell viability was over 98% by trypan blue exclusion. • 2. Cell concentrations were adjusted to 2.22×10^5 or 1.11×10^5 or 5.56×10^4 cells/mL with respective medium. • 3. 90 μL cell suspensions were added to 96-well plates (triplicates for each cell concentration), the final cell densities were 2×10^4 or 1×10^4 or 5×10^3 cells/well. The density of 5×10^3 cells/well was used for the first test. The appropriate cell density was determined and adjusted according to the results of the first test. • 4. The next day, test article or positive drugs were dissolved with DMSO as stock solution at the concentration of 20 mM. • 5. 10 μL drug solution was dispensed in each well (triplicate for each drug concentration). • 6. Plates were cultured for another 72 hours, then measured by means of MTS assay. • 7. MTS/PMS solution was prepared immediately prior to use. […] Absorbance at 490 nm was recorded using SpectraMAX Plus microplate spectrophotometer. […]

Pim-3(h) = Pim-3(h) (Homo sapiens, UniProt Q86V86); experiment: Enzyme activity, ATP = Km, Pim-3(h); format: biochemical; conditions: 300 nM of compound, ATP concentration = Km
KU812 = experiment: Cell proliferation inhibition (MTS), KU812; format: cell-based, human; conditions: KU812, 72 h
Experimental: (§3) All cells were cultured in the media supplemented with 10% FBS in the temperature of 37° C., 5% CO2 and 95% humidity. All culture media were purchased from GIBCO.
(§4) • 1. Cells were harvested respectively during the logarithmic growth period and counted with hemocytometer. Cell viability was over 98% by trypan blue exclusion. • 2. Dilute cells with respective medium to achieve 1.11×10^5 cells/mL for LNCaP cells, 2.22×10^5 cells/mL for KU812 cells, 5.56×10^4 cells/mL for Panc-1 cells. • 3. Add 90 μL cell suspensions to 96-well plate, the final cell densities are 1×10^4 cells/well for LNCaP cells, 2×10^4 cells/well for KU812 cells, and […] cells/well for Panc-1 cells, respectively. • 4. The next day, dilute the test article or positive drugs with DMSO or PBS. • 5. Dispense 10 μL drug solution in each well (triplicate for each drug concentration). • 6. The plates were cultured for another 72 hours, then measured using MTS assay. • 7. Prepare MTS/PMS solution immediately prior to use, pipet 20 μL of the mixture into each well of the 96 well assay plate containing 100 μL culture medium. (The final reaction volume is 120 μL). • 8. Incubate the plate for 1-4 hours at 37° C. in a humidified, 5% CO2 atmosphere. • 9. Record the absorbance at 490 nm using Synergy2 Microplate Reader. Data Analysis:
(§5) The software of GraphPad Prism version 5 was used to calculate IC50. […]

Panc-1 = experiment: Cell proliferation inhibition (MTS), Panc-1; format: cell-based, human; conditions: Panc-1, 72 h
Experimental: as §3, §4, §5

Pim-2(h) = Pim-2(h) (Homo sapiens, UniProt Q9P1W9); experiment: Enzyme activity, ATP = Km, Pim-2(h); format: biochemical; conditions: 300 nM of compound, ATP concentration = Km
CK2(h) = CK2(h) (Homo sapiens, UniProt P68400); experiment: Enzyme activity, ATP = Km, CK2(h); format: biochemical; conditions: 300 nM of compound, ATP concentration = Km
NCI-H929 = experiment: Cell proliferation inhibition (MTS), NCI-H929; format: cell-based, human; conditions: NCI-H929, 72 hours
Experimental: as §1, §2

CK1(y) = experiment: Enzyme activity, ATP = Km, CK1(y); format: biochemical, yeast; conditions: 300 nM of compound, ATP concentration = Km
Pim-1(h) = Pim-1(h) (Homo sapiens, UniProt P11309); experiment: Enzyme activity, ATP = Km, Pim-1(h); format: biochemical; conditions: 300 nM of compound, ATP concentration = Km
Pim-1(h), sequence (P11309 whole entry): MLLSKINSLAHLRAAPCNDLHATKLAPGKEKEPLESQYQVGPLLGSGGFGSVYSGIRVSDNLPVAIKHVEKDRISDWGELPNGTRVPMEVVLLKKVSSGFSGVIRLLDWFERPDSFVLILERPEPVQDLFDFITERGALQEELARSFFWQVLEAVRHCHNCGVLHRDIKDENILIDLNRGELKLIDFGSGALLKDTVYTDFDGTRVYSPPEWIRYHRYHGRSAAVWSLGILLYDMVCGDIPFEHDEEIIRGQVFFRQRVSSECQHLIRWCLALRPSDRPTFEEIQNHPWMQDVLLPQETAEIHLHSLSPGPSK

CK1γ2(h), sequence (P78368 whole entry): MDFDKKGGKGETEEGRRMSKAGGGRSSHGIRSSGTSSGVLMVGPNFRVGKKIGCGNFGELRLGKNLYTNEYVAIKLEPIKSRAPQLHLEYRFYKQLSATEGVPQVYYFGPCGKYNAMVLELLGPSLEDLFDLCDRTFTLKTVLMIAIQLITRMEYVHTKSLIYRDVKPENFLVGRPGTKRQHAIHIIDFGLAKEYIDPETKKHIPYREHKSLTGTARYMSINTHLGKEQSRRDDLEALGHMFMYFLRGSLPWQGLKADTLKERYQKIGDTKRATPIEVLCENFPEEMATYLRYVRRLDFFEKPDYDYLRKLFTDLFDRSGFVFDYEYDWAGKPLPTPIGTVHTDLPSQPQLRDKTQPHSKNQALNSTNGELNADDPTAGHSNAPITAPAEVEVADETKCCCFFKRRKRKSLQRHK
Pim-2(h), sequence (Q9P1W9 whole entry): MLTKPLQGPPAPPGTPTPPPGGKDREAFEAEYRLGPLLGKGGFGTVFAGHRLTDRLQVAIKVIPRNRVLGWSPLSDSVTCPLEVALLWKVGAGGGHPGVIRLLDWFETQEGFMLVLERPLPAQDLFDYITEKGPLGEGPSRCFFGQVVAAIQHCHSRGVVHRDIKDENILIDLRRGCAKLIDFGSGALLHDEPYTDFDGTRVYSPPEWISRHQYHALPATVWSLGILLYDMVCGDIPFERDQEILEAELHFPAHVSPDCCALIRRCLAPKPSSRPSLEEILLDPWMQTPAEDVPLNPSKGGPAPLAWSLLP
CK2(h), sequence (P68400 whole entry): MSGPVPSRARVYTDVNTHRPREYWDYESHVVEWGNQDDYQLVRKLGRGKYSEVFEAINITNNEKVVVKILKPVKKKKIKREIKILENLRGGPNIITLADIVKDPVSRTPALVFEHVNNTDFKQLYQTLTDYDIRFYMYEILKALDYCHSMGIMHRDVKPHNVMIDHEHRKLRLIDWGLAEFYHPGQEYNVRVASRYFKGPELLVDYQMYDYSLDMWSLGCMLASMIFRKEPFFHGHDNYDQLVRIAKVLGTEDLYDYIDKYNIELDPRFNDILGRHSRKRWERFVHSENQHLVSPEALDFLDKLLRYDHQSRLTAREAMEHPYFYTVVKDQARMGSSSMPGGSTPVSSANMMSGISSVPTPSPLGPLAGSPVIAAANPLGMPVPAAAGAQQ
CK2(h), sequence (P67870 whole entry partner): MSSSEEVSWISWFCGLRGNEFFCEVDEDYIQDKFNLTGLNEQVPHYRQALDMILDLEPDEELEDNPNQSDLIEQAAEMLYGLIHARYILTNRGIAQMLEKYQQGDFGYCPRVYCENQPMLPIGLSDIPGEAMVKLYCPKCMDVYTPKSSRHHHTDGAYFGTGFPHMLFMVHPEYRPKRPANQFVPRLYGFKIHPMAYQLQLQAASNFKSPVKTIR

NCC1CCN(c2cc(/C=C3\SC(=O)NC3=O)ncn2)CC1 [Compound 11268]
Percent Activity of Enzyme CK1γ2(h) (CK1γ2(h)): 95%
IC50 (RPMI-8226): > 30 µM
Percent Activity of Enzyme Pim-3(h) (Pim-3(h)): 80%
IC50 (KU812): > 30 µM
IC50 (Panc-1): > 30 µM
Percent Activity of Enzyme Pim-2(h) (Pim-2(h)): 108%
Percent Activity of Enzyme CK2(h) (CK2(h)): 85%
IC50 (NCI-H929): > 30 µM
Percent Activity of Enzyme CK1(y) (CK1(y)): 114%
Percent Activity of Enzyme Pim-1(h) (Pim-1(h)): 115%

From patent publication US8901145B2, “Aminopyrimidine kinase inhibitors” (Jasco Pharmaceuticals, LLC, priority 2011, dated 2014)
